For assay [1], the system named is Acinetobacter baumannii (A. baumannii) BAA747. The assay can be described thus: Antibacterial activity, MIC, A. baumannii BAA747. In kind it is cell-based. Particulars: Acinetobacter baumannii; A. baumannii BAA747; read-out: MIC BAA747.
Assay [2] has as its system Gram-positive Staphylococcus aureus (S. aureus) 29213. The assay can be described thus: Antibacterial activity, microbroth dilution MIC, S. aureus 29213. In kind it is cell-based. As to conditions: Staphylococcus aureus; S. aureus 29213, microbroth dilution; read-out: MIC, 29213. (Broth dilution looks for growth in wells or tubes with falling amounts of substance.)
Assay [3] deals with resistant K. pneumoniae MXX1232 (MDR clinical isolate). As to the kind of experiment: Antibacterial activity, MIC, resistant K. pneumoniae MXX1232. The assay is classed as cell-based, Klebsiella pneumoniae. As to conditions: Klebsiella pneumoniae; resistant K. pneumoniae MMX1232, MDR clinical isolate; read-out: MIC MMX1232.
The subject of assay [4] is quinolone resistant E. coli LZ3111. As to the kind of experiment: Antibacterial activity, MIC, quinolone resistant E. coli LZ3111. The assay is classed as cell-based, Escherichia coli. Particulars: Escherichia coli, read-out: MIC, LZ3111. From the text:
(§1) The antibacterial activity from a microbroth dilution method may be presented as the minimum inhibitory concentration (MIC in […]). The MIC value is the lowest concentration of a drug which prevents macroscopically visible bacterial growth under test conditions.
Mutations in these regions are known to confer a high level resistance to the quinolone class of antibiotics.

The subject of assay [5] is control Gram-negative E. coli 25922 strain. The assay can be described thus: Antibacterial activity, microbroth dilution MIC, E. coli 25922. In kind it is cell-based, Escherichia coli. As to conditions: Escherichia coli; E. coli 25922, microbroth dilution; read-out: MIC, 25922.
Assay [6] deals with Pseudomonas aeruginosa (P. aeruginosa) 27853. As to the kind of experiment: Antibacterial activity, MIC, P. aeruginosa 27853. As to conditions: Pseudomonas aeruginosa, P. aeruginosa 27853; read-out: MIC 27853. The assay is classed as cell-based.
From the text: as §1
Antibacterial activity of test compounds against the Gram-negative bacterium Pseudomonas aeruginosa (P. aeruginosa) 27853 is shown in Table 5.

The subject of assay [7] is super sensitive Gram-negative Escherichia coli (E. coli) BAS849. The assay can be described thus: Antibacterial activity, microbroth dilution MIC, E. coli BAS849. The assay is classed as cell-based. As to conditions: Escherichia coli; E. coli BAS849, microbroth dilution; read-out: MIC, BAS849.
Assay [8] relates to Klebsiella pneumoniae (K. pneumoniae) 35657. As to the kind of experiment: Antibacterial activity, MIC, K. pneumoniae 35657. As to conditions: Klebsiella pneumoniae. The assay is classed as cell-based.
Assay [9] concerns resistant A. baumannii MXX2240 (MDR clinical isolate). As to the kind of experiment: Antibacterial activity, MIC, resistant A. baumannii MXX2240. Particulars: Acinetobacter baumannii, resistant A. baumannii MMX2240, MDR clinical isolate; read-out: MIC MMX2240. In kind it is cell-based, Acinetobacter baumannii.

≈ marks a conversion by molar mass, not a printed value.

By MIC is commonly meant the lowest concentration found to suppress growth. `CN(C)c1ccc(-c2[nH]c(=O)c(C(=O)O)c(O)c2CCO)cc1` [Cpd 328, 6-(4-(dimethylamino)phenyl)-4-hydroxy-5-(2-hydroxyethyl)-2-oxo-1,2-dihydropyridine-3-carboxylic acid]: the MIC in assay [1] fell in the range of 12.5 to 150 µg/mL (≈ 39.3 to 471 µM); in [2], 12.5 to 150 µg/mL (≈ 39.3 to 471 µM); in assay [3], 12.5 to 150 µg/mL (≈ 39.3 to 471 µM); in assay [4] it was 3.5 to 12.5 µg/mL (≈ 11 to 39.3 µM); in assay [5] it was 3.5 to 12.5 µg/mL (≈ 11 to 39.3 µM); in assay [6], 12.5 to 150 µg/mL (≈ 39.3 to 471 µM). Further, the minimal inhibitory concentration (MIC) was less than 1 µg/mL in [7], 3.5 to 12.5 µg/mL (≈ 11 to 39.3 µM) in assay [8] and 3.5 to 12.5 µg/mL (≈ 11 to 39.3 µM) in [9].

For the compound `CN(C)c1ccc(-c2[nH]c(=O)c(C(=O)O)c(O)c2CC(O)CO)cc1` (stereo not drawn) [Cpd 329, 5-(2,3-dihydroxypropyl)-6-(4-(dimethylamino)phenyl)-4-hydroxy-2-oxo-1,2-dihydropyridine-3-carboxylic acid], the minimum inhibitory concentration (MIC) was in the range of 12.5 to 150 µg/mL (≈ 35.9 to 431 µM) in assay [1]; 12.5 to 150 µg/mL (≈ 35.9 to 431 µM) in [2]; 12.5 to 150 µg/mL (≈ 35.9 to 431 µM) in [3]; 3.5 to 12.5 µg/mL (≈ 10 to 35.9 µM) in [4]; 12.5 to 150 µg/mL (≈ 35.9 to 431 µM) in assay [5]; 12.5 to 150 µg/mL (≈ 35.9 to 431 µM) in [6]. Also, the minimal inhibitory concentration (MIC) in assay [7], in assay [8] and in assay [9] was 12.5 to 150 µg/mL (≈ 35.9 to 431 µM) throughout.

As to `C/C=C/c1c(-c2ccc(N(C)C)cc2)[nH]c(=O)c(C(=O)O)c1O` [Cpd 330, (E)-6-(4-(dimethylamino)phenyl)-4-hydroxy-2-oxo-5-(prop-1-enyl)-1,2-dihydropyridine-3-carboxylic acid], the MIC in assay [1], in assay [2], in [3], in [4], in assay [5] and in assay [6] was 12.5 to 150 µg/mL (≈ 39.8 to 477 µM) each time. The MIC in [7] lay in the range of 1 to 3.5 µg/mL (≈ 3.18 to 11.1 µM); in assay [8], 12.5 to 150 µg/mL (≈ 39.8 to 477 µM); in assay [9], 12.5 to 150 µg/mL (≈ 39.8 to 477 µM).

In the case of `CN(C)c1ccc(-c2[nH]c(=O)c(C(=O)O)c(O)c2CO)cc1` [Cpd 331, 6-(4-(dimethylamino)phenyl)-4-hydroxy-5-(hydroxymethyl)-2-oxo-1,2-dihydropyridine-3-carboxylic acid], the minimal inhibitory concentration (MIC) lay within 12.5 to 150 µg/mL (≈ 41.1 to 493 µM) in assay [1]; 12.5 to 150 µg/mL (≈ 41.1 to 493 µM) in [2]; 12.5 to 150 µg/mL (≈ 41.1 to 493 µM) in assay [3]; 3.5 to 12.5 µg/mL (≈ 11.5 to 41.1 µM) in assay [4]; 12.5 to 150 µg/mL (≈ 41.1 to 493 µM) in [5]; 12.5 to 150 µg/mL (≈ 41.1 to 493 µM) in assay [6]. For the same compound, the MIC in assay [7] lay within 1 to 3.5 µg/mL (≈ 3.29 to 11.5 µM); in assay [8], 12.5 to 150 µg/mL (≈ 41.1 to 493 µM); in assay [9], 12.5 to 150 µg/mL (≈ 41.1 to 493 µM).

Turning to `COCc1c(-c2ccc(N(C)C)cc2)[nH]c(=O)c(C(=O)O)c1O` [Cpd 332, 6-(4-(dimethylamino)phenyl)-4-hydroxy-5-(methoxymethyl)-2-oxo-1,2-dihydropyridine-3-carboxylic acid], the MIC in [1], in [2], in assay [3], in assay [4], in assay [5] and in assay [6] was 12.5 to 150 µg/mL (≈ 39.3 to 471 µM) throughout. The MIC in assay [7], in [8] and in assay [9] was 12.5 to 150 µg/mL (≈ 39.3 to 471 µM) throughout.

Consider `CC#Cc1c(-c2ccc(N(C)C)cc2)[nH]c(=O)c(C(=O)O)c1O` [Cpd 333, 6-(4-(dimethylamino)phenyl)-4-hydroxy-2-oxo-5-(prop-1-ynyl)-1,2-dihydropyridine-3-carboxylic acid], for which the MIC in assay [1], in assay [2], in assay [3], in assay [4], in assay [5] and in assay [6] was 12.5 to 150 µg/mL (≈ 40 to 480 µM) in each case. The MIC in assay [7] is 1 to 3.5 µg/mL (≈ 3.2 to 11.2 µM); in [8] it was 12.5 to 150 µg/mL (≈ 40 to 480 µM); in assay [9], 12.5 to 150 µg/mL (≈ 40 to 480 µM).

On to `CCc1c(-c2ccc(O)cc2)[nH]c(=O)c(C(=O)O)c1O` [Cpd 334, 5-ethyl-4-hydroxy-6-(4-hydroxyphenyl)-2-oxo-1,2-dihydropyridine-3-carboxylic acid], for which the MIC in assay [1], in [2], in assay [3], in [4], in assay [5] and in assay [6] was 12.5 to 150 µg/mL (≈ 45.4 to 545 µM) each time. Further, the MIC in assay [7] lay in the range of 3.5 to 12.5 µg/mL (≈ 12.7 to 45.4 µM); in assay [8], 12.5 to 150 µg/mL (≈ 45.4 to 545 µM); in assay [9] it was 12.5 to 150 µg/mL (≈ 45.4 to 545 µM).

(Values after patent US9650395B2, “Antibacterial compounds and methods for use” (PTC Therapeutics, Inc., priority 2011, dated 2017).)
